Measurements from US20030181498A1, “Bicyclic heteroaryl compounds as inhibitors of the interaction between the integrin alpha4beta1 receptor and vcam-1 and/or fibronectin” (AstraZeneca AB, priority 2000, published 2003).

Biological target: T1, integrin α4β1 expressed on the MOLT-4 cell membrane with fibronectin (Homo sapiens, UniProt P05556+P13612)
T1 construct: integrin α4β1 expressed on the MOLT-4 cell membrane; host or cells: MOLT-4 human T-lymphoblastic leukaemia cells
Experiment: MOLT-4 cell/fibronectin adhesion assay
Assay type: cell-based
Conditions: MOLT-4 cells, fibronectin-coated plates, 2 h at 37° C.; read-out: inhibitor at (inhibition of MOLT-4 cell adhesion to fibronectin)
Source text: MOLT4 cells—human T-lymphoblastic leukaemia cells European Collection of Anil Cell Cultures, Porton Down)
Fibronectin—purified from human plasma by gelatin-sepharose affinity chromatography according to the methods described in E. Nengvall, E. Ruoslahti, Int. J. Cancer, 1977, 20, pages 1-5 and J. Forsyth et al, Methods in Enzymology, 1992, 21 pages 311-316).
1.1.1 MOLT-4 Cell/Fibronectin Adhesion Assay.
The MOLT-4 cell/fibronectin adhesion assay was used to investigate the interaction of the integrin α4β1 expressed on the MOLT-4 cell membrane with fibronectin. Polystyrene 96 well plates were coated overnight at 4° C. with fibronectin, 100 μl of 10 μg/ml in PBS. Non-specific adhesion sites were blocked by adding 100 μl BSA, 20 mg/ml. After incubating for 1 h at room temperature, the solutions were aspirated. […] Adherent cells were quantified by a colorimetric acid phosphatase assay. […] After incubation for 1 h at 37° C., 50 μl sodium hydroxide (1M) was added to each well and the absorbance 405 nm was measured on a microplate spectrophotometer. Compounds which inhibited adhesion gave a lower absorbance reading. […] Percentage inhibition was calculated with respect to total (no inhibitor) and non-specific (no fibronectin) standards on each plate. […]

T1 sequence (P13612 34-1032): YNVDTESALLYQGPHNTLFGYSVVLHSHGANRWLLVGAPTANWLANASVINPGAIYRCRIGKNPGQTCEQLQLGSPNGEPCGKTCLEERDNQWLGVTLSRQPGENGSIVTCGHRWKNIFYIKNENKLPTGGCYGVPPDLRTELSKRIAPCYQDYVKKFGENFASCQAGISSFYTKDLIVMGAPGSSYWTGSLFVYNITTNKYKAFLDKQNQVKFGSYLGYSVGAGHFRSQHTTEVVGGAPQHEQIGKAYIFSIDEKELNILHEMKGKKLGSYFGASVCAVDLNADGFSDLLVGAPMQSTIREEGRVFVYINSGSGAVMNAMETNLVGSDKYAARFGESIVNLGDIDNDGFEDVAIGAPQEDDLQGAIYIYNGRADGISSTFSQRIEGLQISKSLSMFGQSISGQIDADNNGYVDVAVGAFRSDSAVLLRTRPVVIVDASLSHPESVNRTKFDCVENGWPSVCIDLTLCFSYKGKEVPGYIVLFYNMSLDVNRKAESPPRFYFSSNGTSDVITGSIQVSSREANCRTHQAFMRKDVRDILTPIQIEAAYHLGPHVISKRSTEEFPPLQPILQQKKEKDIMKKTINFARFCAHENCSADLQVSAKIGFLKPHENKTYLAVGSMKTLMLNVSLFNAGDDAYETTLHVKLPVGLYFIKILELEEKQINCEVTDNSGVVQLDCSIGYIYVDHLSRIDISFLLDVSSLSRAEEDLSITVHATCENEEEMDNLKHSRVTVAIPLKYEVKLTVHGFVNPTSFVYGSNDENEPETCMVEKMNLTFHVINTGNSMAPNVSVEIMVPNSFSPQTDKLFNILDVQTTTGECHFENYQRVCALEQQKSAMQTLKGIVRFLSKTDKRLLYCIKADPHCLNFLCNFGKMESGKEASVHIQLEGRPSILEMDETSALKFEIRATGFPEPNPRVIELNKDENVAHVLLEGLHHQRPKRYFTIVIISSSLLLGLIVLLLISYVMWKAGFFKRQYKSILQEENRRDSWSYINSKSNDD
T1 sequence (P05556 21-798): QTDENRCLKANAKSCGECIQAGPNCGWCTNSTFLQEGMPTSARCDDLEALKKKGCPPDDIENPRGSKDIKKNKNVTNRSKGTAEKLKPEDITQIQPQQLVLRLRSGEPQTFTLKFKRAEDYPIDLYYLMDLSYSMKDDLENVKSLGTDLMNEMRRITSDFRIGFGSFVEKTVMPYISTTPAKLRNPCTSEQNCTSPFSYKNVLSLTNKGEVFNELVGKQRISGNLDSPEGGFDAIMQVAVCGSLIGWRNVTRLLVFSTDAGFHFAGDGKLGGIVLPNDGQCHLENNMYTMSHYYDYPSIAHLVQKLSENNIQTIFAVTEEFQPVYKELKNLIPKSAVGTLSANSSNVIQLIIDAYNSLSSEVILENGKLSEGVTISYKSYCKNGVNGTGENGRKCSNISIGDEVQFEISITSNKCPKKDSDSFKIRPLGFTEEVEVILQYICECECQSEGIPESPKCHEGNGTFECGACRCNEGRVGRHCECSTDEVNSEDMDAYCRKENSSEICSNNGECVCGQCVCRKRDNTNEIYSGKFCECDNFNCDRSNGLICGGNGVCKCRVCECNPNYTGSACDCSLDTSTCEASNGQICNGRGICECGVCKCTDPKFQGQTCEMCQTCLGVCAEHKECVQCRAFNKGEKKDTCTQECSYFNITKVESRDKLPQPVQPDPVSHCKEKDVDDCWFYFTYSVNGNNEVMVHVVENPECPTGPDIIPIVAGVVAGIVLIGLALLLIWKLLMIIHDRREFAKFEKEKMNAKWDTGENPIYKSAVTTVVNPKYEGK

Structure (SMILES): COc1cc(CC(=O)Nc2ccc(=O)n(CCCCC(=O)O)c2)cc2oc(Nc3ccccc3)nc12 [Compound CV]
- IC50: 1.1 µM
